Data taken from US10703748B2, “Diazanaphthalen-3-yl carboxamides and preparation and use thereof” (Samumed, LLC, priority 2017, dated 2020).

Tests used:
DYRK1A kinase = DYRK1A kinase (Homo sapiens, UniProt Q13627); experiment: DYRK1A kinase activity (Ser/Thr 18 peptide Z-lyte FRET assay); format: biochemical; settings: recombinant DYRK1A, 30 μM ATP, one hour at room temperature;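 also: kinase activity read as coumarin/fluorescein emission ratio after development step, with unphosphorylated and phosphorylated peptide forms setting 0% and 100% controls, values from dose-response curves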
GSK3β kinase = GSK3β kinase (Homo sapiens, UniProt P49841); experiment: GSK3β kinase activity (Ser/Thr 09 peptide Z-lyte FRET assay); format: biochemical; settings: recombinant kinase, 46 μM ATP, one hour at room temperature; read-out: EC50
[1] = test system: SW480 colon carcinoma cells; experiment: Cell viability assay (CellTiter-Glo); settings: Homo sapiens; for EC50: SW480, 96 h; for inhibition at 10 µM: SW480, read-out: percent inhibition at 10 μM
[2] = test system: Wnt-responsive Sp5-Luc reporter in SW480 colon carcinoma cells; experiment: Screening assay for Wnt activity (Sp5-Luc reporter gene assay); settings: Homo sapiens; for EC50: SW480; for inhibition at 10 µM: SW480, read-out: percent inhibition at 10 μM
IL-6 = IL-6 inhibition in LPS-stimulated human peripheral blood mononuclear cells (HTRF); settings: Homo sapiens, PBMC; for EC50: 22 h; for inhibition at 10 µM: read-out: percentage in parentheses after EC50 >10
[3] = test system: α-smooth muscle actin (aSMA) positive LL29 cells; experiment: Inhibition of the fibrotic process: αSMA staining in TGF-β1 treated LL29 fibroblasts from IPF patients; settings: Homo sapiens, Fibroblast; for EC50: 96 h; for inhibition at 10 µM: read-out: percentage in parentheses after EC50 >10
Protocol: Each compound was dissolved in DMSO as a 10 mM stock and used to prepare compound source plates. […] LL29 cells were plated at 1,500 cells/well in 70 μL/well F12 medium supplemented with 1% Fetal Bovine Serum. […] Wells treated with TGF-β1 and containing DMSO were used as positive control, and cells with only DMSO were negative control. Cells were incubated at 37° C. and 5% CO2 for 4 days. Following incubation for 4 days, SYTOX green nucleic acid stain (Life Technologies [Thermo Fisher Scientific]) was added to the wells at a final concentration of 1 μM and incubated at room temperature for 30 min. Cells were then fixed using 4% formaldehyde (Electron Microscopy Sciences), washed 3 times with PBS followed by blocking and permeabilization using 3% Bovine Serum Albumin (BSA; Sigma) and 0.3% Triton X-100 (Sigma) in PBS.

Sequence of GSK3β kinase (P49841 whole entry): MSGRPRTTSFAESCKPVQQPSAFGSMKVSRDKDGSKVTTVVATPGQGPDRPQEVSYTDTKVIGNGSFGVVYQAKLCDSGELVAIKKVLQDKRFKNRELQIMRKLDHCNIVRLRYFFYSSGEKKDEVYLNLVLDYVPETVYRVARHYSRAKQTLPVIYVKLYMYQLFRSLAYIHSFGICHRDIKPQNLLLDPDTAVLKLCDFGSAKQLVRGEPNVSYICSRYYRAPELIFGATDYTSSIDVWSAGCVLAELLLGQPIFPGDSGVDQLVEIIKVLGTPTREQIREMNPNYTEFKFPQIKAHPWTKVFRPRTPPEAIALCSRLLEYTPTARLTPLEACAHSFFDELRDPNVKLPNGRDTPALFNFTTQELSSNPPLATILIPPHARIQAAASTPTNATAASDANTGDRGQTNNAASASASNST

Q: Cn1cc(-c2cc3cc(NC(=O)C4CCN(CC5(C(F)(F)F)CC5)CC4)ncc3cn2)nn1 [Compound 3974, N-(6-(1-Methyl-1H-1,2,3-triazol-4-yl)-2,7-naphthyridin-3-yl)-1-((1-(trifluoromethyl)cyclopropyl)methyl)piperidine-4-carboxamide] was tested. Which EC50 (DYRK1A kinase) did it give?
A: Its EC50 is 184 nM.

Q: What about the EC50 (GSK3β kinase) of the same molecule?
A: Its EC50 is 305 nM.

Q: What about the EC50 [1] of the same molecule?
A: The EC50 was 4.92 µM.

Q: What about the EC50 [2] of the same molecule?
A: The EC50 was 0.76 µM.

Q: What about the EC50 (IL-6) of the same molecule?
A: The EC50 was > 10 µM.

Q: What about the inhibition at 10 µM (IL-6) of the same molecule?
A: Its inhibition at 10 µM is 6.4%.

Q: And the EC50 [3]?
A: The EC50 was 2.02 µM.

Q: Which EC50 (DYRK1A kinase) does the source give for COC1CCN(CC(=O)Nc2cc3cc(-c4cn(C)nn4)ncc3cn2)CC1 [Compound 3985, 2-(4-Methoxypiperidin-1-yl)-N-(6-(1-methyl-1H-1,2,3-triazol-4-yl)-2,7-naphthyridin-3-yl)acetamide] here?
A: The EC50 was 751 nM.

Q: And the EC50 (GSK3β kinase)?
A: The EC50 was 1240 nM.

Q: And the EC50 [1]?
A: The EC50 was > 10 µM.

Q: What about the inhibition at 10 µM [1] of the same molecule?
A: Its inhibition at 10 µM is 34.9%.

Q: What about the EC50 [2] of the same molecule?
A: The EC50 was > 10 µM.

Q: What about the inhibition at 10 µM [2] of the same molecule?
A: Its inhibition at 10 µM is 49.8%.

Q: And the EC50 (IL-6)?
A: Its EC50 is > 10 µM.

Q: What about the inhibition at 10 µM (IL-6) of the same molecule?
A: Its inhibition at 10 µM is 5.2%.

Q: And the EC50 [3]?
A: Its EC50 is 8.38 µM.

Q: What does the source list for CNC(=O)c1ccc(C(=O)Nc2cc3cc(-c4cn(C)nn4)ncc3cn2)cn1 [Compound 3999, N^2-Methyl-N^5-(6-(1-methyl-1H-1,2,3-triazol-4-yl)-2,7-naphthyridin-3-yl) pyridine-2,5-dicarboxamide]?
A: EC50 (DYRK1A kinase): 454 nM; EC50 (GSK3β kinase): > 10000 nM; EC50 [1]: > 10 µM; inhibition at 10 µM [1]: 27.3%; EC50 [2]: > 10 µM; inhibition at 10 µM [2]: 22%; EC50 (IL-6): > 10 µM; inhibition at 10 µM (IL-6): 4.1%; EC50 [3]: > 10 µM; inhibition at 10 µM [3]: 34.6%

Q: With CN(C)C1CCN(c2cc(C(=O)Nc3cc4cc(-c5cn(C)nn5)ncc4cn3)ccn2)CC1 [Compound 4003, 2-(4-(Dimethylamino)piperidin-1-yl)-N-(6-(1-methyl-1H-1,2,3-triazol-4-yl)-2,7-naphthyridin-3-yl)isonicotinamide] as the molecule, how does the EC50 (DYRK1A kinase) read?
A: Its EC50 is 56 nM.

Q: And the EC50 (GSK3β kinase)?
A: Its EC50 is 1720 nM.

Q: What about the EC50 [1] of the same molecule?
A: The EC50 was > 10 µM.

Q: And the inhibition at 10 µM [1]?
A: Its inhibition at 10 µM is 50.4%.

Q: And the EC50 [2]?
A: Its EC50 is > 10 µM.

Q: And the inhibition at 10 µM [2]?
A: Its inhibition at 10 µM is 34%.

Q: What about the EC50 (IL-6) of the same molecule?
A: The EC50 was > 10 µM.

Q: And the inhibition at 10 µM (IL-6)?
A: The inhibition at 10 µM was 3.7%.

Q: What about the EC50 [3] of the same molecule?
A: The EC50 was > 10 µM.

Q: And the inhibition at 10 µM [3]?
A: Its inhibition at 10 µM is 24.6%.

Q: For CN1CCCN(c2cc(C(=O)Nc3cc4cc(-c5cn(C)nn5)ncc4cn3)ccn2)CC1 [Compound 4006, 2-(4-Methyl-1,4-diazepan-1-yl)-N-(6-(1-methyl-1H-1,2,3-triazol-4-yl)-2,7-naphthyridin-3-yl)isonicotinamide], which EC50 (DYRK1A kinase) is on record?
A: The EC50 was 56 nM.

Q: What about the EC50 (GSK3β kinase) of the same molecule?
A: The EC50 was 1470 nM.

Q: And the EC50 [1]?
A: The EC50 was 7.87 µM.

Q: What about the EC50 [2] of the same molecule?
A: Its EC50 is > 10 µM.

Q: And the inhibition at 10 µM [2]?
A: Its inhibition at 10 µM is 37.7%.

Q: What about the EC50 (IL-6) of the same molecule?
A: Its EC50 is > 10 µM.

Q: What about the inhibition at 10 µM (IL-6) of the same molecule?
A: The inhibition at 10 µM was 8.9%.

Q: And the EC50 [3]?
A: The EC50 was > 10 µM.

Q: And the inhibition at 10 µM [3]?
A: Its inhibition at 10 µM is 5.2%.

Q: With CC(C)Oc1ccc(C(=O)Nc2cc3cc(-c4cnc5n4CCNC5)ncc3cn2)cc1 [Compound 4150, 4-Isopropoxy-N-(6-(5,6,7,8-tetrahydroimidazo[1,2-a]pyrazin-3-yl)-2,7-naphthyridin-3-yl)benzamide] as the molecule, how does the EC50 (DYRK1A kinase) read?
A: Its EC50 is 53 nM.

Q: What about the EC50 (GSK3β kinase) of the same molecule?
A: The EC50 was 5140 nM.

Q: What about the EC50 [1] of the same molecule?
A: Its EC50 is > 10 µM.

Q: And the inhibition at 10 µM [1]?
A: The inhibition at 10 µM was 32.7%.

Q: What about the EC50 [2] of the same molecule?
A: The EC50 was 2.85 µM.

Q: What about the EC50 (IL-6) of the same molecule?
A: Its EC50 is > 10 µM.

Q: What about the inhibition at 10 µM (IL-6) of the same molecule?
A: The inhibition at 10 µM was 4.6%.

Q: What about the EC50 [3] of the same molecule?
A: Its EC50 is 3.57 µM.

Q: CC(F)(F)CN1CCC(C(=O)Nc2cc3cc(-c4cnco4)ncc3cn2)CC1 [Compound 4167, 1-(2,2-Difluoropropyl)-N-(6-(oxazol-5-yl)-2,7-naphthyridin-3-yl)piperidine-4-carboxamide] was tested. Which EC50 (DYRK1A kinase) did it give?
A: The EC50 was 3200 nM.

Q: What about the EC50 (GSK3β kinase) of the same molecule?
A: Its EC50 is 127 nM.

Q: What about the EC50 [1] of the same molecule?
A: Its EC50 is > 10 µM.

Q: What about the inhibition at 10 µM [1] of the same molecule?
A: Its inhibition at 10 µM is 11.9%.

Q: And the EC50 [2]?
A: Its EC50 is > 10 µM.

Q: What about the inhibition at 10 µM [2] of the same molecule?
A: Its inhibition at 10 µM is 8.9%.

Q: And the EC50 (IL-6)?
A: The EC50 was > 10 µM.

Q: And the inhibition at 10 µM (IL-6)?
A: The inhibition at 10 µM was 4.9%.

Q: What about the EC50 [3] of the same molecule?
A: The EC50 was > 10 µM.

Q: What about the inhibition at 10 µM [3] of the same molecule?
A: Its inhibition at 10 µM is 43%.

Q: For Cc1nnc(-c2cc3cc(NC(=O)CN4C5CCC4CC5)ncc3cn2)s1 [Compound 4353, 2-(7-Azabicyclo[2.2.1]heptan-7-yl)-N-(6-(5-methyl-1,3,4-thiadiazol-2-yl)-2,7-naphthyridin-3-yl)acetamide], which EC50 (DYRK1A kinase) is on record?
A: Its EC50 is 529 nM.

Q: What about the EC50 (GSK3β kinase) of the same molecule?
A: The EC50 was 2450 nM.

Q: And the EC50 [1]?
A: The EC50 was > 10 µM.

Q: And the inhibition at 10 µM [1]?
A: The inhibition at 10 µM was 4.1%.

Q: What about the EC50 [2] of the same molecule?
A: The EC50 was > 10 µM.

Q: What about the inhibition at 10 µM [2] of the same molecule?
A: Its inhibition at 10 µM is 2.1%.

Q: What about the EC50 (IL-6) of the same molecule?
A: The EC50 was > 10 µM.

Q: What about the inhibition at 10 µM (IL-6) of the same molecule?
A: The inhibition at 10 µM was 8.5%.

Q: And the EC50 [3]?
A: Its EC50 is > 10 µM.

Q: And the inhibition at 10 µM [3]?
A: The inhibition at 10 µM was 26.4%.

Q: How did the EC50 (DYRK1A kinase) turn out when Cc1nnc(-c2cc3cc(NC(=O)c4ccnc(N5CCN(C)CC5)c4)ncc3cn2)s1 [Compound 4377, N-(6-(5-Methyl-1,3,4-thiadiazol-2-yl)-2,7-naphthyridin-3-yl)-2-(4-methylpiperazin-1-yl)isonicotinamide] was run?
A: Its EC50 is 253 nM.

Q: What about the EC50 (GSK3β kinase) of the same molecule?
A: Its EC50 is > 10000 nM.

Q: And the EC50 [1]?
A: The EC50 was 5.4 µM.

Q: And the EC50 [2]?
A: The EC50 was > 10 µM.

Q: And the inhibition at 10 µM [2]?
A: Its inhibition at 10 µM is 28.6%.

Q: What about the EC50 (IL-6) of the same molecule?
A: The EC50 was > 10 µM.

Q: What about the inhibition at 10 µM (IL-6) of the same molecule?
A: The inhibition at 10 µM was 5.7%.

Q: And the EC50 [3]?
A: The EC50 was 2.96 µM.

Q: Which EC50 (DYRK1A kinase) does the source give for CN1CCN(c2cc(C(=O)Nc3cc4cc(-c5cncc(N)c5)ncc4cn3)ccn2)CC1 [Compound 4432, N-(6-(5-Aminopyridin-3-yl)-2,7-naphthyridin-3-yl)-2-(4-methylpiperazin-1-yl)isonicotinamide] here?
A: The EC50 was 2 nM.

Q: And the EC50 (GSK3β kinase)?
A: Its EC50 is > 10000 nM.

Q: And the EC50 [1]?
A: Its EC50 is 2.03 µM.

Q: What about the EC50 [2] of the same molecule?
A: Its EC50 is 2 µM.

Q: And the EC50 (IL-6)?
A: The EC50 was > 10 µM.

Q: And the inhibition at 10 µM (IL-6)?
A: The inhibition at 10 µM was 1.4%.

Q: What about the EC50 [3] of the same molecule?
A: Its EC50 is 1.72 µM.
